As usually defined, the IC50 is the concentration that inhibits the measured activity by half.

Like-named read-outs stand apart in the source and are kept apart here. Some results are limits rather than exact numbers.

Assay [1] deals with synthesis of LTB4 in human whole blood. As to the kind of experiment: human whole blood LTB4 production inhibition assay. The class given is cell-based. As to conditions: heparinized human whole blood, calcimycin 20 μM, read-out: hWB LTB4 IC50. Summed up:
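Steps: compound plus heparinized human whole blood, 15 min at 37° C; add calcimycin to 20 μM final; incubate another 30 min at 37° C; centrifuge at low speed and collect plasma; measure LTB4 with a homogeneous time-resolved fluorescence immunoassay.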

Assay [2] addresses T1, recombinant human FLAP protein (Homo sapiens, UniProt P20292).
T1 construct: made in house; host or cells: Sf9 insect cells (100,000 x g membrane fraction)
T1 sequence (P20292 1-161): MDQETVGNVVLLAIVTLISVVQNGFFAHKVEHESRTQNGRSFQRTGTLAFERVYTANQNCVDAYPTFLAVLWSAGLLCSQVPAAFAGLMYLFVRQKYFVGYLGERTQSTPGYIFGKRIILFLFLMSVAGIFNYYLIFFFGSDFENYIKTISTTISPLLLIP
The assay is described as follows: FLAP binding assay (Scintillation Proximity Assay, displacement of [125I]L-691,831). As to conditions: recombinant human FLAP membranes, [125I]L-691,831 probe; read-out: FLAP SPA IC50. The gist of the method: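 WGA scintillation proximity beads were stirred 1 h with 5 μg of FLAP-containing membrane protein. The membranes came from baculovirus Sf9 cells, Dounce-lysed and spun to a 100,000×g pellet in buffer at pH 7.5.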

For the molecule `Nc1ncc(-c2ccc(C3(c4noc(-c5cnc(N6CCNCC6)cn5)n4)CCC3)cc2)cn1` [Example 307, 5-(4-{1-[5-(3,4,5,6-Tetrahydro-2H-1,2′-bipyrazinyl-5′-yl)-1,2,4-oxadiazol-3-yl]-cyclobutyl}-phenyl)-pyrimidin-2-ylamine], the IC50 in assay [1] was found to be 150 nM; in assay [2] it was 3.5 nM.
Regarding `Nc1ncc(-c2ccc(C3(c4noc(-c5ccc(NCCN6CCOCC6)nn5)n4)CCC3)cc2)cn1` [Example 115, [6-(3-{1-[4-(2-Amino-pyrimidin-5-yl)-phenyl]-cyclobutyl}-1,2,4-oxadiazol-5-yl)-pyridazin-3-yl]-(2-morpholin-4-yl-ethyl)-amine], the results for the IC50 in assay [1] (Homo sapiens) and in assay [2] were 140 nM and 3.3 nM, respectively.
On the same counts, the results for `CCOC(=O)CNc1cnc(-c2nc(C3(c4ccc(-c5cnc(N)nc5)cc4)CCC3)no2)cn1` [Example 199, [5-(3-{1-[4-(2-Amino-pyrimidin-5-yl)-phenyl]-cyclobutyl}-1,2,4-oxadiazol-5-yl)-pyrazin-2-ylamino]-acetic acid ethyl ester] are 42 nM and 1 nM.
In the case of `COC(=O)[C@@H]1CN(c2cnc(-c3nc(C4(c5ccc(-c6cnc(N)nc6)cc5)CCC4)no3)cn2)CCN1` [Example 309, (S)-5′-(3-{1-[4-(2-Amino-pyrimidin-5-yl)-phenyl]-cyclobutyl}-1,2,4-oxadiazol-5-yl)-3,4,5,6-tetrahydro-2H-1,2′-bipyrazinyl-3-carboxylic acid methyl ester], the IC50 in assay [1] was found to be 760 nM; in assay [2] it was 5.7 nM.
As to `COCCN(C)c1cnc(-c2nc(C3(c4ccc(-c5cnc(N)nc5)cc4)CCC3)no2)cn1` [Example 198, 5-{4-[1-(5-{5-[(2-Methoxy-ethyl)-methyl-amino]-pyrazin-2-yl}-1,2,4-oxadiazol-3-yl)-cyclobutyl]-phenyl}-pyrimidin-2-ylamine], the values for the IC50 in assay [1] (Homo sapiens) and in assay [2] were 57 nM and 2 nM, respectively.
On the same counts, the results for `CN1CCCCC1c1nc(C2(c3ccc(-c4cnc(N)nc4)cc3)CCC2)no1` (stereo not shown) [Example 280, 5-(4-{1-[5-(1-Methyl-piperidin-2-yl)-[1,2,4]oxadiazol-3-yl]-cyclobutyl}-phenyl)-pyrimidin-2-ylamine] are 1400 nM and 17 nM.
For `Nc1cnc(-c2nc(C3(c4ccc(-c5cnc(N)nc5)cc4)CCC3)no2)cn1` [Example 193, 5-(4-{1-[5-(5-Amino-pyrazin-2-yl)-1,2,4-oxadiazol-3-yl]-cyclobutyl}-phenyl)-pyrimidin-2-ylamine], the IC50 was found to be 45 nM in assay [1] (Homo sapiens) and 1.6 nM in assay [2].
Regarding `Nc1ncc(-c2ccc(C3(c4noc(-c5cc[nH]c(=O)c5)n4)CCC3)cc2)cn1` [Example 184, 4-(3-{1-[4-(2-Amino-pyrimidin-5-yl)-phenyl]-cyclobutyl}-1,2,4-oxadiazol-5-yl)-1H-pyridin-2-one], the figures for the IC50 in assay [1] (Homo sapiens) and in assay [2] were 140 nM and 2.6 nM, respectively.
On to `Nc1ncc(-c2ccc(C3(c4noc(-c5cnn(CC(=O)NC6CCOCC6)c5)n4)CCC3)cc2)cn1` [Example 218, 2-[4-(3-{1-[4-(2-Amino-pyrimidin-5-yl)-phenyl]-cyclobutyl}-[1,2,4]oxadiazol-5-yl)-pyrazol-1-yl]-N-(tetrahydro-pyran-4-yl)-acetamide], for which the IC50 in assay [1] (Homo sapiens) came out at 160 nM; in assay [2] it was 1.2 nM.
On the same counts, the results for `Nc1ncc(-c2ccc(C3(c4noc(-c5cnc(N6CC(O)C6)cn5)n4)CCC3)cc2)cn1` [Example 86, 1-[5-(3-{1-[4-(2-Amino-pyrimidin-5-yl)-phenyl]-cyclobutyl}-1,2,4-oxadiazol-5-yl)-pyrazin-2-yl]-azetidin-3-ol] are 79 nM and 1.2 nM.
On the same counts, the results for `Nc1ncc(-c2ccc(C3(c4noc(-c5cnn(CC(=O)N6CCOCC6)c5)n4)CCC3)cc2)cn1` [Example 134, 2-[4-(3-{1-[4-(2-Amino-pyrimidin-5-yl)-phenyl]-cyclobutyl}-1,2,4-oxadiazol-5-yl)-pyrazol-1-yl]-1-morpholin-4-yl-ethanone] are 120 nM and 5.8 nM.
On the same counts, the results for `Nc1ncc(-c2ccc(C3(c4noc(-c5cnc(N6CCC[C@@H]6CO)cn5)n4)CCC3)cc2)cn1` [Example 195, {(R)-1-[5-(3-{1-[4-(2-Amino-pyrimidin-5-yl)-phenyl]-cyclobutyl}-1,2,4-oxadiazol-5-yl)-pyrazin-2-yl]-pyrrolidin-2-yl}-methanol] are 140 nM and 2.9 nM.
Regarding `CN(C)C(=O)c1nc(C2(c3ccc(-c4cnc(N)nc4)cc3)CCC2)no1` [Example 14, 3-{1-[4-(2-Amino-pyrimidin-5-yl)-phenyl]-cyclobutyl}-1,2,4-oxadiazole-5-carboxylic acid dimethylamide], the IC50 in assay [1] (Homo sapiens) is more than 5000 nM; in assay [2], 57 nM.
For `Nc1ncc(-c2ccc(C3(c4noc(-c5ccc(N6CC[C@H](O)C6)nc5)n4)CCC3)cc2)cn1` [Example 105, (S)-1-[5-(3-{1-[4-(2-Amino-pyrimidin-5-yl)-phenyl]-cyclobutyl}-1,2,4-oxadiazol-5-yl)-pyridin-2-yl]-pyrrolidin-3-ol], the IC50 in assay [1] (Homo sapiens) came out at 78 nM; in assay [2], 1.9 nM.
On the same counts, the results for `Nc1ncc(-c2ccc(C3(c4noc(-c5cnn(CC(=O)N6CCC(O)C6)c5)n4)CCC3)cc2)cn1` (stereo not shown) [Example 239, 2-[4-(3-{1-[4-(2-Amino-pyrimidin-5-yl)-phenyl]-cyclobutyl}-[1,2,4]oxadiazol-5-yl)-pyrazol-1-yl]-1-(3-hydroxy-pyrrolidin-1-yl)-ethanone] are 2500 nM and 6.2 nM.
On the same counts, the results for `Nc1ncc(-c2ccc(C3(c4noc(-c5cnc(N6CCC[C@H]6CO)cn5)n4)CCC3)cc2)cn1` [Example 194, {(S)-1-[5-(3-{1-[4-(2-Amino-pyrimidin-5-yl)-phenyl]-cyclobutyl}-1,2,4-oxadiazol-5-yl)-pyrazin-2-yl]-pyrrolidin-2-yl}-methanol] are 85 nM and 3 nM.
On the same counts, the results for `CN(C)C(=O)Cn1cc(-c2nc(C3(c4ccc(-c5cnc(N)nc5)cc4)CC3)no2)cn1` [Example 268, 2-[4-(3-{1-[4-(2-Amino-pyrimidin-5-yl)-phenyl]-cyclopropyl}-[1,2,4]oxadiazol-5-yl)-pyrazol-1-yl]-N,N-dimethyl-acetamide] are more than 5000 nM and 670 nM.
As for `CS(=O)(=O)c1ccc(-c2nc(C3(c4ccc(-c5cnc(N)nc5)cc4)CCC3)no2)cc1` [Example 36, 5-(4-{1-[5-(4-Methanesulfonyl-phenyl)-1,2,4-oxadiazol-3-yl]-cyclobutyl}-phenyl)-pyrimidin-2-ylamine], the values for the IC50 in assay [1] (Homo sapiens) and in assay [2] were 260 nM and 4.3 nM, respectively.
With `Nc1cnc(-c2ccc(C3(c4noc(-c5cnc(N6CCNCC6)cn5)n4)CCC3)cc2)cn1` [Example 302, 5-(4-{1-[5-(3,4,5,6-Tetrahydro-2H-[1,2′]bipyrazinyl-5′-yl)-[1,2,4]oxadiazol-3-yl]-cyclobutyl}-phenyl)-pyrazin-2-ylamine], the IC50 in assay [1] (Homo sapiens) came out at 150 nM; in assay [2], 2.6 nM.
On the same counts, the results for `CN(CCO)c1cnc(-c2nc(C3(c4ccc(-c5cnc(N)nc5)cc4)CCC3)no2)cn1` [Example 61, 2-{[5-(3-{1-[4-(2-amino-pyrimidin-5-yl)-phenyl]-cyclobutyl}-1,2,4-oxadiazol-5-yl)-pyrazin-2-yl]-methyl-amino}-ethanol] are 53 nM and 1.5 nM.

Values taken from patent publication US8580829B2 (Boehringer Ingelheim International GmbH, priority 2010, dated 2013).
